Measurements taken from patent US20110190365A1, “Insecticidal 4-phenyl-1H-pyrazoles” (Bayer Crop Science AG, priority 2008, published 2011).

Test: log P by HPLC on a reversed-phase column (C18), EEC Directive 79/831 Annex V.A8
Format: physicochemical
Conditions: HCOOH
Procedure: The stated log P values were determined in accordance with EEC Directive 79/831 Annex V.A8 by HPLC (High Performance Liquid Chromatography) using a reversed-phase column (C18).

Row | Structure (SMILES) | log P (HCOOH)
1 | Cc1cc(-n2nc(C)c(-c3cc(Cl)ccc3Cl)c2N)ccc1C(=O)NCC(F)(F)C(F)F [I-A-Q2-335] | I-A-Q2-335: log P (HCOOH): 3.04
2 | CC(NC(=O)c1ccc(-n2nc(C(F)(F)F)c(-c3ccc(Cl)cc3)c2N)cc1)c1ccccn1 (centres unmarked) [I-A-Q2-165] | I-A-Q2-165: log P (HCOOH): 2.72
3 | N#Cc1cc(-n2nc(C(F)(F)F)cc2N)ccc1-n1cncn1 [XI-A-079] | XI-A-079: log P (HCOOH): 2.80
4 | Cc1cc(-n2nc(C(F)(F)F)c(-c3cc(Cl)cc(Cl)c3)c2N)ccc1C(=O)NC1CCN(C(=O)C2CC2)CC1 [I-A-Q2-203] | I-A-Q2-203: log P (HCOOH): 3.77
5 | Cc1cc(-n2nc(C)c(-c3ccccc3Cl)c2N)ccc1C(=O)NCC(F)(F)C(F)F [I-A-Q2-333] | I-A-Q2-333: log P (HCOOH): 2.59
6 | CS(=O)(=O)c1cc(-n2nc(C(F)(F)F)c(-c3cc(Cl)cc(Cl)c3)c2N)ccc1C(=O)NCc1ccccn1 [I-A-Q2-425] | I-A-Q2-425: log P (HCOOH): 2.99
7 | Cc1cc(C)nc(CNC(=O)c2ccc(-n3nc(C(F)(F)F)c(-c4cc(Cl)cc(Cl)c4)c3N)cc2C)n1 [I-A-Q2-245] | I-A-Q2-245: log P (HCOOH): 3.89
8 | Cc1cc(-n2nc(C(F)(F)F)c(-c3cc(Cl)cc(Cl)c3)c2N)ccc1C(=O)NCCc1ccccn1 [I-A-Q2-226] | I-A-Q2-226: log P (HCOOH): 2.50
9 | Nc1c(-c2cccc(F)c2)c(C(F)(F)F)nn1-c1ccc(C(=O)NC2CC2)cc1 [I-A-Q2-184] | I-A-Q2-184: log P (HCOOH): 2.76
10 | Cc1cc(-n2nc(C(F)(F)F)c(I)c2N)ccc1C(=O)NCC(F)(F)C(F)F [XI-A-094] | XI-A-094: log P (HCOOH): 3.08
11 | Cc1cc(-n2nc(C)c(-c3cc(F)ccc3F)c2N)ccc1C(=O)NCC(F)(F)C(F)F [I-A-Q2-332] | I-A-Q2-332: log P (HCOOH): 2.59
12 | CC(C)(CC(F)(F)F)NC(=O)c1ccc(-n2nc(C(F)(F)F)c(-c3cc(Cl)cc(Cl)c3)c2N)cc1 [I-A-Q2-069] | I-A-Q2-069: log P (HCOOH): 4.83
13 | Nc1c(-c2ccc(Cl)c(Cl)c2)c(C(F)(F)F)nn1-c1ccc(C(=O)NC2CC2)cc1 [I-A-Q2-157] | I-A-Q2-157: log P (HCOOH): 3.51
14 | CC(NC(=O)c1ccc(-n2nc(C(F)(F)F)c(-c3ccc(Br)cc3)c2N)cc1)c1ccccn1 (centres unmarked) [I-A-Q2-192] | I-A-Q2-192: log P (HCOOH): 2.89
15 | CCCC(NC(=O)c1ccc(-n2nc(C(F)(F)F)c(-c3cc(Cl)cc(Cl)c3)c2N)cc1)C(F)(F)F (centres unmarked) [I-A-Q2-071] | I-A-Q2-071: log P (HCOOH): 4.95
16 | Cc1cc(-n2nc(C(F)(F)F)cc2N)ccc1C(=O)O [XI-A-084] | XI-A-084: log P (HCOOH): 3.53
17 | CC(NC(=O)c1ccc(-n2nc(C(F)(F)F)c(-c3cc(Cl)cc(C(F)(F)F)c3)c2N)cc1)C(F)(F)F (centres unmarked) [I-A-Q2-095] | I-A-Q2-095: log P (HCOOH): 4.51
18 | CC(NC(=O)c1ccc(-n2nc(C(F)(F)F)c(-c3ccccc3Cl)c2N)cc1)c1ccccc1 (centres unmarked) [I-A-Q2-081] | I-A-Q2-081: log P (HCOOH): 3.58
19 | Cc1cc(-n2nc(C(F)(F)F)c(Cl)c2N)ccc1C(=O)NCc1ccccn1 [XI-A-091] | XI-A-091: log P (HCOOH): 1.94
20 | COC(=O)c1ccc(-n2nc(C(F)(F)F)cc2N)cc1C [XI-A-080] | XI-A-080: log P (HCOOH): 1.97
21 | Cc1cc(-n2nc(C(F)(F)F)c(-c3cc(Cl)cc(Cl)c3)c2N)ccc1C(=O)NCc1cccc(N2CCOCC2)n1 [I-A-Q2-280] | I-A-Q2-280: log P (HCOOH): 3.96
22 | CCOC(=O)c1ccc(-n2nc(C(F)(F)F)c(Br)c2N)cc1 [XI-A-018] | XI-A-018: log P (HCOOH): 3.60
23 | CC(NC(=O)c1ccc(-n2nc(C(F)(F)F)c(-c3cc(Cl)cc(Cl)c3)c2N)cc1)c1ccccn1 (centres unmarked) [I-A-Q2-147] | I-A-Q2-147: log P (HCOOH): 3.47
24 | Cc1cc(-n2nc(C(F)(F)F)c(-c3cc(Cl)cc(Cl)c3)c2N)ccc1C(=O)NCCO [I-A-Q2-272] | I-A-Q2-272: log P (HCOOH): 3.24

Row | Structure (SMILES) | log P (HCOOH)
25 | Cc1cc(-n2nc(C(F)(F)F)c(-c3ccc(Cl)c(F)c3)c2N)ccc1C(=O)NCC(F)(F)C(F)F [I-A-Q2-310] | I-A-Q2-310: log P (HCOOH): 3.70
26 | CCCC(NC(=O)c1ccc(-n2nc(C(F)(F)F)c(-c3cc(Cl)cc(Cl)c3)c2N)cc1C)C(F)(F)F (centres unmarked) [I-A-Q2-201] | I-A-Q2-201: log P (HCOOH): 5.11
27 | Cc1cc(-n2nc(C(F)(F)F)c(-c3cc(Cl)cc(Cl)c3)c2N)ccc1C(=O)NCCc1ncc(C(F)(F)F)cc1Cl [I-A-Q2-232] | I-A-Q2-232: log P (HCOOH): 4.95
28 | Cc1cc(-n2nc(C(F)(F)F)c(-c3cc(Cl)cc(Cl)c3)c2N)ccc1C(=O)N(C)Cc1cccnc1 [I-A-Q2-209] | I-A-Q2-209: log P (HCOOH): 3.02
29 | Nc1c(-c2ccc(Cl)c(Cl)c2)c(C(F)(F)F)nn1-c1ccc(C(=O)NCC(F)F)cc1 [I-A-Q2-159] | I-A-Q2-159: log P (HCOOH): 3.65
30 | Cc1cc(-n2nc(C(F)(F)F)c(-c3cc(Cl)cc(Cl)c3)c2N)ccc1C(=O)NC(C)c1ccccn1 (centres unmarked) [I-A-Q2-015] | I-A-Q2-015: log P (HCOOH): 3.70
31 | Cc1cc(CNC(=O)c2ccc(-n3nc(C(F)(F)F)c(-c4cc(Cl)cc(Cl)c4)c3N)cc2C)n(C)n1 [I-A-Q2-254] | I-A-Q2-254: log P (HCOOH): 3.58
32 | COc1ccc(CNC(=O)c2ccc(-n3nc(C(F)(F)F)c(-c4cc(Cl)cc(Cl)c4)c3N)cc2C)nc1 [I-A-Q2-032] | I-A-Q2-032: log P (HCOOH): 3.63
33 | C=CCNC(=O)c1ccc(-n2nc(C(F)(F)F)c(-c3cc(Cl)cc(Cl)c3)c2N)cc1C [I-A-Q2-062] | I-A-Q2-062: log P (HCOOH): 3.94
34 | Cc1cc(-n2nc(C(F)(F)F)c(-c3cccc(Br)c3)c2N)ccc1C(=O)NCC1CC1 [I-A-Q2-416] | I-A-Q2-416: log P (HCOOH): 3.81
35 | Cc1cc(-n2nc(C(F)(F)C(F)(F)F)c(-c3ccc(Cl)cc3)c2N)ccc1C(=O)NCC(F)(F)C(F)F [I-A-Q2-321] | I-A-Q2-321: log P (HCOOH): 4.00
36 | Cc1cc(-n2nc(C(F)(F)F)c(-c3cc(Cl)cc(Cl)c3)c2N)ccc1C(=O)N(C)C(C)c1ccncc1 (centres unmarked) [I-A-Q2-211] | I-A-Q2-211: log P (HCOOH): 2.89
37 | Cc1cc(-n2nc(C(F)(F)F)c(Br)c2N)ccc1C(=O)NCc1ccccn1 [XI-A-093] | XI-A-093: log P (HCOOH): 1.98
38 | CSc1c(-c2cc(Cl)cc(Cl)c2)c(C(F)(F)F)nn1-c1ccc(C(=O)NCC(F)(F)C(F)F)c(C)c1 [I-A-Q2-282] | I-A-Q2-282: log P (HCOOH): 5.25
39 | CC(NC(=O)c1ccc(-n2nc(C(F)(F)F)c(-c3ccc(Cl)c(Cl)c3)c2N)cc1)c1ccccn1 (centres unmarked) [I-A-Q2-160] | I-A-Q2-160: log P (HCOOH): 3.23
40 | Nc1c(-c2cc(Cl)cc(Cl)c2)c(C(F)(F)F)nn1-c1ccc(C(=O)NCCCC(F)=C(F)F)cc1 [I-A-Q2-073] | I-A-Q2-073: log P (HCOOH): 4.35
41 | CC(C)NC(=O)c1ccc(-n2nc(C(F)(F)F)c(-c3ccc(Cl)c(Cl)c3)c2N)cc1 [I-A-Q2-154] | I-A-Q2-154: log P (HCOOH): 3.75
42 | Cc1cc(-n2nc(C(C)C)c(-c3ccc(Cl)cc3)c2N)ccc1C(=O)NCc1ccccn1 [I-A-Q2-378] | I-A-Q2-378: log P (HCOOH): 2.61
43 | Cc1cc(-n2nc(C(F)(F)F)c(-c3cc(Cl)cc(Cl)c3)c2N)ccc1C(=O)NCc1ccc(Cl)nc1 [I-A-Q2-219] | I-A-Q2-219: log P (HCOOH): 4.05
44 | Cc1cc(-n2nc(C(F)(F)F)c(Cl)c2N)ccc1C(=O)O [XI-A-085] | XI-A-085: log P (HCOOH): 1.95
45 | CNC(=O)c1ccc(-n2nc(C(F)(F)F)c(-c3cc(Cl)cc(Cl)c3)c2N)cc1C [I-A-Q2-013] | I-A-Q2-013: log P (HCOOH): 3.59
46 | Cc1cc(-n2nc(C(F)(F)F)c(-c3cc(Cl)cc(Cl)c3)c2N)ccc1C(=O)NC1(c2ccccn2)CC1 [I-A-Q2-244] | I-A-Q2-244: log P (HCOOH): 3.68
47 | Cc1cc(-n2nc(C3CCCO3)c(-c3cc(Cl)cc(C(F)(F)F)c3)c2N)ccc1C(=O)NCC(F)(F)C(F)F (centres unmarked) [I-A-Q2-290] | I-A-Q2-290: log P (HCOOH): 4.00
48 | Cc1cc(-n2nc(C)c(-c3cccc(Cl)c3)c2N)ccc1C(=O)NCC(F)(F)C(F)F [I-A-Q2-331] | I-A-Q2-331: log P (HCOOH): 2.85

Same assay, conditions: HCOOH; Table 4, compounds of formula I-A-Q4

Row | Structure (SMILES) | log P (HCOOH)
49 | Cc1cc(C)cc(-c2c(C(F)(F)F)nn(-c3ccc(Cl)cn3)c2N)c1 [I-A-Q4-022] | I-A-Q4-022: log P (HCOOH): 5.22
50 | CNc1cc(-n2nc(C(F)(F)F)c(-c3cc(Cl)cc(Cl)c3)c2N)ccc1C(=O)O [I-A-Q4-120] | I-A-Q4-120: log P (HCOOH): 4.11
51 | Cc1nn(-c2ccc(Cl)cn2)c(N)c1-c1c(F)cccc1F [I-A-Q4-036] | I-A-Q4-036: log P (HCOOH): 3.58
52 | Nc1c(-c2cc(Cl)cc(Cl)c2)c(C(F)(F)F)nn1-c1ccc(C(=O)O)c(C(F)(F)F)c1 [I-A-Q4-115] | I-A-Q4-115: log P (HCOOH): 4.22
53 | Cc1ccccc1-c1c(C(F)(F)F)nn(-c2ccc(C(=O)O)cc2)c1N [I-A-Q4-101] | I-A-Q4-101: log P (HCOOH): 2.94
54 | COC(=O)c1ccc(-n2nc(C(F)(F)F)c(-c3cc(Cl)cc(Cl)c3)c2N)cc1Cl [I-A-Q4-104] | I-A-Q4-104: log P (HCOOH): 5.07
55 | N#Cc1ccc(-c2c(C(F)(F)F)nn(-c3ccc(Cl)cn3)c2N)cc1 [I-A-Q4-045] | I-A-Q4-045: log P (HCOOH): 4.11
56 | Cc1nn(-c2ccc(Cl)cn2)c(N)c1-c1ccc(Cl)cc1 [I-A-Q4-039] | I-A-Q4-039: log P (HCOOH): 4.40
57 | COC(=O)c1ccc(-n2nc(C(F)(F)F)c(-c3cc(Cl)cc(Cl)c3)c2N)cc1C(F)(F)F [I-A-Q4-112] | I-A-Q4-112: log P (HCOOH): 5.21
58 | Nc1c(-c2ccc(F)c(Cl)c2)c(C(F)(F)F)nn1-c1ccc(C(=O)O)cc1 [I-A-Q4-094] | I-A-Q4-094: log P (HCOOH): 3.31

Same assay, conditions: HCOOH; compounds of the formula (IX), Table 11

Row | Structure (SMILES) | log P (HCOOH)
59 | Nc1[nH]nc(C(F)(F)F)c1-c1ccc(Cl)c(Cl)c1 [IX-38] | IX-38: log P (HCOOH): 2.80

Same assay, conditions: HPLC, reversed-phase C18, mobile phase with formic acid

Row | Structure (SMILES) | log P (HCOOH)
60 | COc1cnn(-c2ccc(-n3nc(C(F)(F)F)c(-c4cc(Cl)cc(Cl)c4)c3N)cc2C#N)c1 [I-A-Q1-085] | I-A-Q1-085: log P (HCOOH): 4.45
61 | N#Cc1cc(-n2nc(C(F)(F)F)c(-c3cc(Cl)cc(Cl)c3)c2N)ccc1-n1cccn1 [I-A-Q1-082] | I-A-Q1-082: log P (HCOOH): 4.34
62 | CC(=O)NCc1ccc(-n2nc(C(F)(F)F)c(-c3cc(Cl)cc(Cl)c3)c2N)cc1Cl [I-A-Q3-023] | I-A-Q3-023: log P (HCOOH): 3.70
